# Laboratory results reported in patent publication US12233087B2, “Palladium hyaluronic acid particles and methods of managing cancer or angiogenic conditions” (Emory University, priority 2018, dated 2025).
# Where two headings read alike, the source gives them in different places.
# Key:
# [1] = at 25° C.; cited from earlier work
# IGF1R = test: Immunohistochemistry of tumor xenografts for IGF1R; type: in vivo, human; conditions: IHC, LM36R xenograft
# Experimental: Immunohistochemistry was performed to qualitatively assess expression of target genes. […] To assess the impact of our treatments on IGF1R expression, IHC was used to stain the tumor xenografts with antibodies against IGF1R.
# [2] = molecular target: N-myristoyltransferase 1 (NMT1) (Homo sapiens, UniProt P30419); conditions: reported in the literature; cited from earlier work
# Sequence of N-myristoyltransferase 1 (NMT1) (P30419 whole entry, species assumed): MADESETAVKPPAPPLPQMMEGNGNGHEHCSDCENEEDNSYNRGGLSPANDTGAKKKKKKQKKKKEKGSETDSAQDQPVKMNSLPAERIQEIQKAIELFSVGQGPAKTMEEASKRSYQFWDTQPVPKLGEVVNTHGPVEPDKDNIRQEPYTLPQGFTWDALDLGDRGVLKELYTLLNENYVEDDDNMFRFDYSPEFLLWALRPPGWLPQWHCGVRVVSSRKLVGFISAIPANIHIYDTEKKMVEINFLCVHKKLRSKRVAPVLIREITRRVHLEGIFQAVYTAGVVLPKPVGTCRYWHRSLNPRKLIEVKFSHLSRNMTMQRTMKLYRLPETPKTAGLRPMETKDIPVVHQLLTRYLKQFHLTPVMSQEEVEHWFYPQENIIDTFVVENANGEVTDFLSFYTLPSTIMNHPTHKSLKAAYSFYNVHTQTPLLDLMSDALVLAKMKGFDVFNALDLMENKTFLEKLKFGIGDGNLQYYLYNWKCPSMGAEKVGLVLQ
# melanoma = conditions: Clin Cancer Res. 2008, 14:5743-5748; cited from earlier work
# [3] = general statement, water, cited from earlier work
# [4] = system: LM36R human melanoma cells; test: LM36R vemurafenib-resistant melanoma xenograft tumor growth in nude mice; type: in vivo, athymic Nu/Nu nude male mice; conditions: 5 mg of drug/kg per injection, bi-weekly tail vein injections, 4 weeks, n=5 per group; p-value 0.048 at week 4
# Experimental: Nude male mice were inoculated with LM36R (5.0×10^5 cells), a human cell line of melanoma that is resistant to vemurafenib, and then treated with HANPs over the course of four weeks.
# Vemurafenib-resistant LM36R human melanoma cells were inoculated (5.0×10^5 cells/mouse) into the right flank of athymic Nu/Nu nude male mice (Crl:NU-Foxn1^nu strain code 088)) n=5 per group, and progression of tumor was recorded using the volume model of length×(width)×0.52. Mice were split into four groups consisting of a control (empty HANP), free Tris DBA-Pd, HANP with Tris DBA-Pd, and HANP with Tris DBA-Pd and aIGF1R antibody. Free Tris DBA-Pd was first dissolved in DMSO and then mixed with Kolliphor EL™. At last, the mixture was diluted by H2O before injection at concentration of 1 mg/mL of DBA. The ratio of DMSO, Kolliphor EL™ and H2O was controlled as 1:2:7 (v/v). The treatments were administered through bi-weekly tail vein injections over the course of 4 weeks (5 mg of drug/kg per injection). Tumor samples were analyzed for CD44 (hyaluronate receptor) expression by immunohistochemistry.
# LM36R xenograft tumor = test: Gene array / whole-transcriptome expression analysis of treated tumors; type: in vivo, human
# Experimental: Gene array was performed on all tumors. […] By varying the delivery process of a single drug, one might be able to prevent resistance.
# RNA Extraction and QC: RNA was extracted using the Qiagen miRNEasy™ kit with on column DNAse treatment. Tissue was lysed and homogenized in Qiazol™ with a rotor-stator probe homogenizer for 40 seconds or until fully disrupted (1 ml Qiazol™ per 100 mg of tissue). RNA was eluted in 50 ul nuclease free water. One microliter was used to determine OD (optical density) values on a Nanodrop 1000. One microliter was used to assess sample profiles on the Agilent 2100 using the RNA 6000 Nano assay. Total RNA (250 ng) was amplified and labeled using the ThermoFisher Scientific Illuina™ TotalPrep™ RNA Amplification kit. Labeled cRNA was hybridized to Illumina HT12™ bead array. Image acquisition and data extraction were performed.
# [5] = Dispersion of free vs HANP-loaded Tris DBA-Pd in water, FBS and cell culture media; type: physicochemical
# Experimental: Hyaluronic Acid (HA)-5β-cholanic acid conjugate was synthesized by linking the carboxyl group of HA with the amino group on 5β-cholanic acid in the presence of EDC and NHS (FIG. 1). Hyaluronic Acid nanoparticles/Tris-DBA palladium were prepared. Water-insoluble Tris DBA-Pd was physically encapsulated into the hydrophobic cavities by a high-pressure homogenizer. This allowed for the dispersion of Tris DBA-Pd under physiological conditions. After freeze-drying, 40 mg of HANPs were dispersed in 8 mL of distilled water and 10 mg of Tris DBA-Pd was dissolved in 2 mL dimethyl sulfoxide (DMSO). The Tris DBA-Pd solution was slowly added into the HANP in high pressure homogenizer and homogenized for 5 min. Finally, the resulting mixture was dialyzed for 4 hours against an excess amount of distilled water to remove unloaded drugs and organic solvent, followed by lyophilization.
# To verify the encapsulation of Tris DBA-Pd, the size changes were compared before and after loading.
compound,measurement,setting,value
CCCCCCCC [octane],percent solubility in water by weight,[1],0.63×10^−4 % w/w
Tris DBA-Pd HANPs coupled with anti-IGF1R antibodies: Tris DBA-Pd HANP with anti-IGF1R monoclonal antibodies (Dalotuzumab) conjugated onto the surface,intensity of IGF1R staining,IGF1R,decreased the intensity of IGF1R staining more so than the other groups
"O=C(/C=C/c1ccccc1)/C=C/c1ccccc1.O=C(/C=C/c1ccccc1)/C=C/c1ccccc1.O=C(/C=C/c1ccccc1)/C=C/c1ccccc1.[Pd].[Pd] [free Tris DBA-Pd, Tris(dibenzylideneacetone)dipalladium]",activity against NMT1,[2],activity against the enzyme N-myristoyltransferase 1
same,effect on melanoma growth,melanoma,effective against melanoma growth
same,solubility,[3]; listed as Tris (dibenzylideneacetone) dipalladium,poor solubility
same,solubility,[3]; listed as Tris DBA-Pd,Water-insoluble
same,inhibition of growth of LM36R tumors,[4],showed efficacy
same,SCG2 (secretogranin 2) expression,LM36R xenograft tumor,downregulated
same,"behaviour in water, FBS, and cell culture media (precipitation / dispersion)",[5],immediately precipitated
